Data: patent US20070264659A1, “LUNG CANCER BIOMARKER DISCOVERY” (priority 2006, published 2007)

Tested on: lung cancer cell lines A549, NCI-H146 and NCI-H358
Assay: Reactivation of 20 identified genes by treatment of demethylating agent (gene expression)
Type: cell-based
Settings: lung cancer cells treated with DAC compared with untreated cells; FIG. 4B
Method: Separately, lung cancer cell lines such as A549, NCI-H146 and NCI-H358 are treated with a demethylating agent DAC and assayed for reactivation of genes that are normally repressed in tumor cells. Overlapping genes between the tumor suppressed gene set and the demethylation reactivated gene set are considered to be candidate genes for lung cancer biomarkers. One hundred six (106) such overlapping genes were found (FIG. 1). Methylation sensitive enzyme/nucleic acid sequence based amplification analysis such as Hpa II Mspl enzyme digestion/PCR (or enzyme digestion post-PCR) further removed a few other genes that were not methylated in any of the lung cancer cell lines. To further confirm biochemically that the candidate gene was indeed methylated in tumor cells, bisulfite sequencing assays were conducted and methylation of the final 20 genes was verified.
Gene expression profiles of the 20 genes were created. The expression level of the 20 genes was measured in lung cancer cell lines treated with DAC (FIG. 4B). Methylation status of the genes was also measured using methylation sensitive enzyme/nucleic acid sequence based amplification analysis such as Hpa II/MspI enzyme digestion/PCR (or enzyme digestion post-PCR) method on lung cancer cell lines and the results for the 20 genes is shown in FIG. 4A. The identified genes are not methylated in normal cells. […]

Nc1ncn([C@H]2C[C@H](O)[C@@H](CO)O2)c(=O)n1 [DAC, 5 aza 2′-deoxycytidine]
gene expression of the 20 identified genes in lung cancer cells treated with demethylating agent: reactivated
